Results taken from publication PMC6478823, “A suite of phenotypic assays to ensure pipeline diversity when prioritizing drug-like Cryptosporidium growth inhibitors” (Nature Communications, 2019).
“And” between values parts separate entries of the source, which are not always exact repeats. Identical values can stand only once. Like-named read-outs stand apart in the source and are kept apart here.

What was measured:
[1] = tested on: C. parvum; test: Egress, motility, reinvasion assay (PV ratio); conditions: compound at EC90; for Egress and Reinvasion Assay: Mean PV ratios (19.5h:6h), Average: average of replicates; for Egress and Reinvasion Assay: Mean PV ratios (19.5h:6h), Replicate 1a: single replicate 1; for Egress and Reinvasion Assay: Mean PV ratios (19.5h:6h), Replicate 2a: single replicate 2; for Egress and Reinvasion Assay: Mean PV ratios (19.5h:6h), Replicate 3a: single replicate 3; for Egress and Reinvasion Assay: Mean PV ratios (19.5h:6h), Replicate 4a: single replicate 4
Description: For quantification of parasitophorous vacuoles over time, HCT-8 cells were grown to greater than 90% confluence in 384-well plates and infected with 11,000 oocysts after triggering excystation.

[2] = tested on: Cryptosporidium; conditions: cited from earlier work
[3] = tested on: C. parvum; conditions: cited from earlier work
[4] = tested on: C. parvum; test: 48 h Cryptosporidium growth inhibition assay; assay type: cell-based, Cryptosporidium parvum; conditions: for 0 - 48 h V. villosa lectin (asexual): Mean % Inhibition (parasites): replicates 1-3 in separate columns; for EC90: compound added 3 h post-infection, read at 48 h
Description: As a first step in developing specific Cryptosporidium mode of action assays, we conducted a series of light microscopy time-lapse and transmission electron microscopy (TEM) time course experiments in order to precisely define C. parvum development within the HCT-8 cell culture system. […] This synchronicity was exploited by modifying a previously developed high-content microscopy assay. These assay modifications enabled the evaluation of several key events within the life cycle: host cell invasion, intracellular replication, host cell egress and establishment of new parasitophorous vacuoles, and sexual differentiation. […] Since the methods all used automated liquid handling, imaging, and image analysis, the assay methods all incorporated nuclear staining to monitor host cell numbers and enable recognition of HCT-8 cell monolayer damage, for example as an artifact from a malfunctioning plate washer or from unanticipated cytotoxicity of the compounds.
Human ileocecal adenocarcinoma (HCT-8) cells were purchased from ATCC (catalog# CCL-244) and cultured in ATCC modified RPMI-1640 medium (Gibco, catalog# A10491–01), supplemented with 10% heat-inactivated fetal bovine serum (Sigma-Aldrich, catalog# 12306C) and 120 U/mL penicillin and 120 μg/mL streptomycin (Gibco, catalog# 15140-122) (culture media). […] For all experiments, HCT-8 cells between passages 9 and 39 were used. C. parvum (Iowa isolate) oocysts were purchased from Bunchgrass Farm (Deary, ID), stored at 4 °C and used within 5 months of collection from an infected calf. To induce excystation, oocysts were first treated with 10 mM hydrochloric acid for 10 min at 37 °C, spun at 14,000×g for 4.5 min at room temperature, treated with 2 mM sodium taurocholate for 10 min at 16 °C, spun as before, and resuspended in culture media for infection.
A modification of a previously reported immunofluorescence assay was used to determine the EC50 and EC90 of compounds[13]. HCT-8 cells were grown to ≥ 90% confluence in 384-well plates (Corning, catalog# 353962) and infected with 5500 oocysts per well after they were induced for excystation as described above. Different concentrations of compounds were added 3 h post-infection and plates were incubated for another 45 h in a 5% CO2 incubator at 37 °C. Wells were then washed 3 times with PBS containing 111 mM D-galactose (PBS-D-gal), fixed with 4% paraformaldehyde (PFA) in PBS for 15 min at room temperature, permeabilized with 0.25% Triton X-100 for 10 min at 37 °C, washed 3 times with PBS with 0.1% Tween 20, and blocked with 4% bovine serum albumin (BSA) in PBS for 2 h at 37 °C or 4 °C overnight. Parasitophorous vacuoles were stained with 1.33 µg/mL of fluorescein-labeled Vicia villosa lectin (Vector Laboratories, catalog# FL-1231) diluted in 1% BSA in PBS with 0.1% Tween 20 for 1 h at 37 °C, followed by addition of Hoechst 33258 (AnaSpec, catalog# AS-83219) at 0.09 mM diluted in water for another 15 min at 37 °C. Wells were then washed 5 times with PBS containing 0.1% Tween 20. A Nikon Eclipse Ti2000 epifluorescence microscope with an automated stage was programmed using NIS-Elements Advanced Research software (Nikon, USA) to focus on the center of each well and take a 3 × 3 or 6 × 6 composite image using an EXi blue fluorescence microscopy camera (QImaging, Canada) with a 20 × objective (NA = 0.45). Nuclei and parasite images were separately exported as.tif files and analyzed using macros developed on the ImageJ platform (National Institutes of Health)[13].

[5] = tested on: purified N-WASp; parameters: method as in PMID 15235593; conditions: at 10 µM; cited from earlier work
[6] = read-out: Regular 3 to 48 h assay in vitro EC90, C. parvum in HCT-8 cells
[7] = Cryptosporidium parvum, HCT-8, read-out: Regular 3 to 48 h assay in vitro EC90, C. parvum in HCT-8 cells

SMILES | Egress and Reinvasion Assay: Mean PV ratios (19.5h:6h), Average [1] | Egress and Reinvasion Assay: Mean PV ratios (19.5h:6h), Replicate 1a [1] | Egress and Reinvasion Assay: Mean PV ratios (19.5h:6h), Replicate 2a [1] | Egress and Reinvasion Assay: Mean PV ratios (19.5h:6h), Replicate 3a [1] | Egress and Reinvasion Assay: Mean PV ratios (19.5h:6h), Replicate 4a [1] | EC90 [4, 6] | further results
O=C(Nc1ccc(Cl)cc1)N1CCN(c2ccc3nncn3n2)CC1 [D-1] | 1.86 | 1.12 | 1.70 | 3.12 | 1.50 | 5100 nM | efficacy in acute IFN-γ KO mouse model [2]: efficacious; efficacy in chronic NSG mouse model [3]: efficacious; activity in NSG mouse model ([3]; ref Jumani, et al. 2018. AAC.): Active; 0 - 48 h V. villosa lectin (asexual): Mean % Inhibition (parasites) ([4]; D-1 at log conc (µM) 0.00): -13.99% and -26.93% and 12.39%; 0 - 48 h V. villosa lectin (asexual): Mean % Inhibition (parasites) ([4]; D-1 at log conc (µM) 0.30): 44.90% and 34.43% and 28.35%; 0 - 48 h V. villosa lectin (asexual): Mean % Inhibition (parasites) ([4]; D-1 at log conc (µM) 0.48): 62.14% and 71.97% and 62.62%; 0 - 48 h V. villosa lectin (asexual): Mean % Inhibition (parasites) ([4]; D-1 at log conc (µM) 0.60): 81.17% and 79.33% and 75.56%; 0 - 48 h V. villosa lectin (asexual): Mean % Inhibition (parasites) ([4]; D-1 at log conc (µM) 0.85): 91.46% and 90.48% and 90.58%; 0 - 48 h V. villosa lectin (asexual): Mean % Inhibition (parasites) ([4]; D-1 at log conc (µM) 1.08): 93.34% and 92.97% and 93.35%; 0 - 48 h V. villosa lectin (asexual): Mean % Inhibition (parasites) ([4]; D-1 at log conc (µM) 1.40): 93.98% and 94.31% and 94.76%; 0 - 48 h V. villosa lectin (asexual): Mean % Inhibition (parasites) ([4]; D-1 at log conc (µM) -0.70): -20.95% and -21.90% and -17.53%; 0 - 48 h V. villosa lectin (asexual): Mean % Inhibition (parasites) ([4]; D-1 at log conc (µM) -1.40): -23.49% and -23.30% and -25.37%; EC50 ([4]; read-out: 0 − 48 h V. villosa lectin (asexual): EC50, asexual growth assay, first 48 h, range in brackets): 2100 nM
CN(C)C[C@H](O)Cn1c2ccc(Br)cc2c2cc(Br)ccc21 (racemic) [Wiskostatin] | 1.04 | 1.34 | 0.98 | 0.80 | 1.04 | 11300 nM | inhibition of purified N-WASp [5]: inhibit purified N-WASp; EC90 [4, 7]: 11300 nM
CCOc1ccc2cc(-c3nn(CC4CCN(C)CC4)c4ncnc(N)c34)ccc2c1 [BKI-1294] | 1.49 | 1.81 | 1.18 |  |  | 22400 nM | anticryptosporidial activity in the acute IFN-γ knockout mouse infection model ([2]; ref Castellanos-Gonzalez, et al. 2013. JID. and Love, et al. 2017. PLoS NTD.): previously demonstrated anticryptosporidial activity
Oc1c(C(Nc2ccccn2)c2cccc(Oc3ccccc3)c2)ccc2cccnc12 (stereo not shown) [A-2] | 0.69 | 0.67 | 0.71 |  |  | 1340 nM | 
CC(=O)O[C@@]12CO[C@@H]1C[C@H](O)[C@@]1(C)C(=O)[C@H](O)C3=C(C)[C@@H](OC(=O)[C@H](O)[C@@H](NC(=O)OC(C)(C)C)c4ccccc4)C[C@@](O)([C@@H](OC(=O)c4ccccc4)[C@H]21)C3(C)C [Docetaxel] | 1.76 | 1.96 | 2.25 | 1.23 | 1.60 |  | EC90 [4, 7]: 1000 nM
O=c1[nH]c(=O)n([C@H]2C[C@H](O)[C@@H](CO)O2)cc1F [Floxuridine] | 0.74 | 0.67 | 0.80 |  |  |  | EC90 ([4]; Cryptosporidium parvum, read-out: Regular 3 to 48 h assay in vitro EC90, C. parvum in HCT-8 cells): 140 nM
O=C(Nc1ccc(Cl)c(Cl)c1)N1CCN(c2ccc3nncn3n2)CC1 [D-28] | 1.28 | 1.01 | 1.19 | 1.91 | 1.01 | 1500 nM | 
